molecular target: PIM1 (Homo sapiens (Human), UniProt P11309); assay: biochemical; format: biochemical; settings: not given
Sequence (P11309 whole entry): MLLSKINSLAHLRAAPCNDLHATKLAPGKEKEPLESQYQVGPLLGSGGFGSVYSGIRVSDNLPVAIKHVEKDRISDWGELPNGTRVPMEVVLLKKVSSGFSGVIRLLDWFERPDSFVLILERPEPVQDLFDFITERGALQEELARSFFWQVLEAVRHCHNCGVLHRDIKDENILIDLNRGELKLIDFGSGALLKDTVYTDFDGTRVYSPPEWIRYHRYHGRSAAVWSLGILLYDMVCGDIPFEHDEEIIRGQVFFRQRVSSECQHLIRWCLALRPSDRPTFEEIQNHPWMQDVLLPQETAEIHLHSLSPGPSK

| Ki | Structure (SMILES) |
| --- | --- |
| 0.017 nM | [2H]C([2H])([2H])O[C@H]1CO[C@@H](c2c(NC(=O)c3nc(-c4c(F)cccc4F)sc3N)cnn2C)CC[C@@H]1N [Example 180, 5-Amino-N-[5-[(2R,5S,6R)-5-amino-6-(trideuteriomethoxy)oxepan-2-yl]-1-methyl-pyrazol-4-yl]-2-(2,6-difluorophenyl)thiazole-4-carboxamide] |

same assay, conditions: 20 pM PIM1, 1 μM FAM-peptide, 10 μM ATP, 90 minutes at room temperature; read-out: PIM1 LC3K (KI)

| Ki | Structure (SMILES) |
| --- | --- |
| 0.004 nM | Cn1ncc(NC(=O)c2nc(-c3cccc(F)c3F)sc2N)c1[C@@H]1CC[C@@H](N)[C@@H](F)CO1 [Example 181, 5-Amino-N-[5-[(2S,5R,6R)-5-amino-6-fluoro-oxepan-2-yl]-1-methyl-pyrazol-4-yl]-2-(2,3-difluorophenyl)thiazole-4-carboxamide] |
| 0.051 nM | Cn1ncc(NC(=O)c2nc(-c3ccncc3F)sc2N)c1[C@@H]1CC[C@@H](N)[C@@H](F)CO1 [Example 182, 5-Amino-N-[5-[(2S,5R,6R)-5-amino-6-fluoro-oxepan-2-yl]-1-methyl-pyrazol-4-yl]-2-(3-fluoro-4-pyridyl)thiazole-4-carboxamide] |
| 0.0143 nM | CO[C@H]1CO[C@H](c2c(NC(=O)c3nc(-c4ccccc4F)sc3N)cnn2C)CC[C@H]1N [Example 183, 5-Amino-N-[5-[(2S,5R,6R)-5-amino-6-methoxy-oxepan-2-yl]-1-methyl-pyrazol-4-yl]-2-(2-fluorophenyl)thiazole-4-carboxamide] |
| 0.484 nM | C[C@H]1O[C@@H](c2c(NC(=O)c3nc(-c4c(F)cccc4F)sc3N)cnn2C)CC(F)(F)[C@@]1(C)N [Example 184, 5-Amino-N-(5-((2R,5S,6R)-5-amino-4,4-difluoro-5,6-dimethyltetrahydro-2H-pyran-2-yl)-1-methyl-1H-pyrazol-4-yl)-2-(2,6-difluorophenyl)thiazole-4-carboxamide] |
| 4.35 nM | C[C@@H]1O[C@H](c2c(NC(=O)c3nc(-c4c(F)cccc4F)sc3N)cnn2C)CC(F)(F)[C@]1(C)N [Example 185, 5-Amino-N-(5-((2S,5R,6S)-5-amino-4,4-difluoro-5,6-dimethyltetrahydro-2H-pyran-2-yl)-1-methyl-1H-pyrazol-4-yl)-2-(2,6-difluorophenyl)thiazole-4-carboxamide] |
| 0.007 nM | Cn1ncc(NC(=O)c2nc(-c3ccccc3F)sc2N)c1[C@@H]1CC[C@@H](N)[C@@H](F)CO1 [Example 186, 5-Amino-N-(5-((2S,5R,6R)-5-amino-6-fluorooxepan-2-yl)-1-methyl-1H-pyrazol-4-yl)-2-(2-fluorophenyl)thiazole-4-carboxamide] |
| 0.027 nM | COc1cc(F)c(-c2nc(C(=O)Nc3cnn(C)c3[C@@H]3CC[C@@H](N)[C@@H](F)CO3)ccc2F)c(F)c1 [Example 187, N-(5-((2S,5R,6R)-5-Amino-6-fluorooxepan-2-yl)-1-methyl-1H-pyrazol-4-yl)-6-(2,6-difluoro-4-methoxyphenyl)-5-fluoropicolinamide] |
| 0.03 nM | Cn1ncc(NC(=O)c2ccc(F)c(-c3c(F)cc(OC4CCOCC4)cc3F)n2)c1[C@@H]1CC[C@@H](N)[C@@H](F)CO1 [Example 188, N-(5-((2S,5R,6R)-5-Amino-6-fluorooxepan-2-yl)-1-methyl-1H-pyrazol-4-yl)-6-(2,6-difluoro-4-((tetrahydro-2H-pyran-4-yl)oxy)phenyl)-5-fluoropicolinamide] |
| 0.025 nM | COCCOc1cc(F)c(-c2nc(C(=O)Nc3cnn(C)c3[C@@H]3CC[C@@H](N)[C@@H](F)CO3)ccc2F)c(F)c1 [Example 189, N-(5-((2S,5R,6R)-5-Amino-6-fluorooxepan-2-yl)-1-methyl-1H-pyrazol-4-yl)-6-(2,6-difluoro-4-(2-methoxyethoxy)phenyl)-5-fluoropicolinamide] |
| 0.014 nM | Cn1ncc(NC(=O)c2ccc(F)c(-c3c(F)cc(OCCO)cc3F)n2)c1[C@@H]1CC[C@@H](N)[C@@H](F)CO1 [Example 190, N-(5-((2S,5R,6R)-5-Amino-6-fluorooxepan-2-yl)-1-methyl-1H-pyrazol-4-yl)-6-(2,6-difluoro-4-(2-hydroxyethoxy)phenyl)-5-fluoropicolinamide] |
| 0.056 nM | COCCOc1cc(F)c(-c2nc(C(=O)Nc3cnn(C)c3[C@@H]3CC[C@@H](N)[C@H](O)CO3)ccc2F)c(F)c1 [Example 191, N-(5-((2S,5R,6S)-5-Amino-6-hydroxyoxepan-2-yl)-1-methyl-1H-pyrazol-4-yl)-6-(2,6-difluoro-4-(2-methoxyethoxy)phenyl)-5-fluoropicolinamide] |
| 0.023 nM | COCCOc1cc(F)c(-c2nc(C(=O)Nc3cnn(C)c3[C@@H]3CC[C@@H](N)[C@H](F)CO3)ccc2F)c(F)c1 [Example 192, N-(5-((2S,5R,6S)-5-amino-6-fluorooxepan-2-yl)-1-methyl-1H-pyrazol-4-yl)-6-(2,6-difluoro-4-(2-methoxyethoxy)phenyl)-5-fluoropicolinamide] |
| 0.034 nM | Cn1ncc(NC(=O)c2ccc(F)c(-c3c(F)cc(C4(O)COC4)cc3F)n2)c1[C@@H]1CC[C@@H](N)[C@H](F)CO1 [Example 193, N-(5-((2S,5R,6S)-5-amino-6-fluorooxepan-2-yl)-1-methyl-1H-pyrazol-4-yl)-6-(2,6-difluoro-4-(3-hydroxyoxetan-3-yl)phenyl)-5-fluoropicolinamide] |
| 0.022 nM | Cn1ncc(NC(=O)c2ccc(F)c(-c3c(F)cc(C4(F)COC4)cc3F)n2)c1[C@@H]1CC[C@@H](N)[C@H](F)CO1 [Example 194, N-(5-((2S,5R,6S)-5-amino-6-fluorooxepan-2-yl)-1-methyl-1H-pyrazol-4-yl)-6-(2,6-difluoro-4-(3-fluorooxetan-3-yl)phenyl)-5-fluoropicolinamide] |
| 0.025 nM | Cn1ncc(NC(=O)c2ccc(F)c(-c3c(F)cccc3F)n2)c1[C@@H]1CC[C@@H](N)[C@H](F)CO1 [Example 195, N-(5-((2S,5R,6S)-5-amino-6-fluorooxepan-2-yl)-1-methyl-1H-pyrazol-4-yl)-6-(2,6-difluorophenyl)-5-fluoropicolinamide] |
| 0.006 nM | Cn1ncc(NC(=O)c2ccc(F)c(-c3c(F)cc(C4(O)CCOCC4)cc3F)n2)c1[C@@H]1CC[C@@H](N)[C@H](F)CO1 [Example 196, N-(5-((2S,5R,6S)-5-amino-6-fluorooxepan-2-yl)-1-methyl-1H-pyrazol-4-yl)-6-(2,6-difluoro-4-(4-hydroxytetrahydro-2H-pyran-4-yl)phenyl)-5-fluoropicolinamide] |
| 0.018 nM | Cn1ncc(NC(=O)c2ccc(F)c(-c3c(F)cc(OC4CCOCC4)cc3F)n2)c1[C@@H]1CC[C@@H](N)[C@H](F)CO1 [Example 197, N-(5-((2S,5R,6S)-5-Amino-6-fluorooxepan-2-yl)-1-methyl-1H-pyrazol-4-yl)-6-(2,6-difluoro-4-((tetrahydro-2H-pyran-4-yl)oxy)phenyl)-5-fluoropicolinamide] |
| 0.021 nM | Cn1ncc(NC(=O)c2ccc(F)c(-c3c(F)cc(C4(O)CCC4)cc3F)n2)c1[C@@H]1CC[C@@H](N)[C@H](F)CO1 [Example 198, N-(5-((2S,5R,6S)-5-amino-6-fluorooxepan-2-yl)-1-methyl-1H-pyrazol-4-yl)-6-(2,6-difluoro-4-(1-hydroxycyclobutyl)phenyl)-5-fluoropicolinamide] |
| 0.031 nM | COCc1cc(F)c(-c2nc(C(=O)Nc3cnn(C)c3[C@@H]3CC[C@@H](N)[C@H](F)CO3)ccc2F)c(F)c1 [Example 199, N-(5-((2S,5R,6S)-5-amino-6-fluorooxepan-2-yl)-1-methyl-1H-pyrazol-4-yl)-6-(2,6-difluoro-4-(methoxymethyl)phenyl)-5-fluoropicolinamide] |
| 0.011 nM | Cn1ncc(NC(=O)c2ccc(F)c(-c3c(F)cc(C(C)(C)O)cc3F)n2)c1[C@@H]1CC[C@@H](N)[C@H](F)CO1 [Example 200, N-(5-((2S,5R,6S)-5-amino-6-fluorooxepan-2-yl)-1-methyl-1H-pyrazol-4-yl)-6-(2,6-difluoro-4-(2-hydroxypropan-2-yl)phenyl)-5-fluoropicolinamide] |
| 0.019 nM | COc1cc(F)c(-c2nc(C(=O)Nc3cnn(C)c3[C@@H]3CC[C@@H](N)[C@H](F)CO3)ccc2F)c(F)c1 [Example 201, N-(5-((2S,5R,6S)-5-amino-6-fluorooxepan-2-yl)-1-methyl-1H-pyrazol-4-yl)-6-(2,6-difluoro-4-methoxyphenyl)-5-fluoropicolinamide] |
| 0.056 nM | COC1(c2cc(F)c(-c3nc(C(=O)Nc4cnn(C)c4[C@@H]4CC[C@@H](N)[C@H](F)CO4)ccc3F)c(F)c2)COC1 [Example 202, N-(5-((2S,5R,6S)-5-amino-6-fluorooxepan-2-yl)-1-methyl-1H-pyrazol-4-yl)-6-(2,6-difluoro-4-(3-methoxyoxetan-3-yl)phenyl)-5-fluoropicolinamide] |
| 0.119 nM | COC1(c2cc(F)c(-c3nc(C(=O)Nc4cnn(C)c4[C@@H]4CC[C@@H](N)[C@@H](F)CO4)ccc3F)c(F)c2)COC1 [Example 203, N-(5-((2S,5R,6R)-5-amino-6-fluorooxepan-2-yl)-1-methyl-1H-pyrazol-4-yl)-6-(2,6-difluoro-4-(3-methoxyoxetan-3-yl)phenyl)-5-fluoropicolinamide] |
| 0.001 nM | Cn1ncc(NC(=O)c2ccc(F)c(-c3c(F)cc(C4(O)CC4)cc3F)n2)c1[C@@H]1CC[C@@H](N)[C@H](F)CO1 [Example 204, N-(5-((2S,5R,6S)-5-amino-6-fluorooxepan-2-yl)-1-methyl-1H-pyrazol-4-yl)-6-(2,6-difluoro-4-(1-hydroxycyclopropyl)phenyl)-5-fluoropicolinamide] |
| 0.034 nM | CCC(=O)c1cc(F)c(-c2nc(C(=O)Nc3cnn(C)c3[C@@H]3CC[C@@H](N)[C@H](F)CO3)ccc2F)c(F)c1 [Example 205, N-(5-((2S,5R,6S)-5-amino-6-fluorooxepan-2-yl)-1-methyl-1H-pyrazol-4-yl)-6-(2,6-difluoro-4-propionylphenyl)-5-fluoropicolinamide] |
| 0.016 nM | Cn1ncc(NC(=O)c2ccc(F)c(-c3c(F)cc(C4(F)CCOCC4)cc3F)n2)c1[C@@H]1CC[C@@H](N)[C@H](F)CO1 [Example 206, N-(5-((2S,5R,6S)-5-amino-6-fluorooxepan-2-yl)-1-methyl-1H-pyrazol-4-yl)-6-(2,6-difluoro-4-(4-fluorotetrahydro-2H-pyran-4-yl)phenyl)-5-fluoropicolinamide] |
